# Results published in PubChem BioAssay AID434987 (Southern Research Specialized Biocontainment Screening …, 2010).
# Active and inactive are the calls of the source. How the calls were made is not given here.
# System: M. tuberculosis H37Rv growth inhibition with meropenem
# Assay: dose response, H37Rv, with and without meropenem (AID 434987);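 further: growth over 7 days at 37 °C before Alamar Blue read on day 9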
# [1] = M. tuberculosis H37Rv growth inhibition, measured here: IC50 without meropenem
# [2] = M. tuberculosis H37Rv growth inhibition, measured here: IC90 without meropenem
# [3] = measured here: IC90 with meropenem
Compound,IC50,IC50 [1] [µM],IC90 [2] [µM],IC90 [3] [µM]
COc1ccc(C(=O)/C=C/c2cccs2)c(OC(=O)c2cccc([N+](=O)[O-])c2)c1,29.5 µM (inactive),54.8,85.2,> 100
CN1CCN(c2ccccc2NC(=O)c2ccc(-c3ccc(Cl)c(Cl)c3)o2)CC1,7.5 µM,31.8,> 100,> 100
CCC(C)Nc1c2c(nc3c(-c4ccccc4)c(C)nn13)CCC2 (stereo unspecified),> 100 µM (inactive),> 100,> 100,> 100
COc1cc(OC)c2ccc(=O)oc2c1C(CC(=O)N1CCN(c2ccccc2)CC1)c1ccc2c(c1)OCO2 (stereo unspecified),91.1 µM (inactive),> 100,> 100,> 100
COc1cc(OC)cc(-c2nnc(NC(=O)CCS(=O)(=O)c3ccc(C)cc3)o2)c1,32.2 µM,> 100,> 100,> 100
O=C(COC(=O)C1CC1)NCc1ccccc1Cl,1.37 µM,> 100,> 100,> 100
Cc1nn(C)c(C(=O)NC(=S)Nc2ccccc2Br)c1Cl,> 100 µM (inactive),> 100,> 100,> 100
O=C(OCC(=O)N1CCN(C(=O)c2ccco2)CC1)c1cc(-c2ccco2)nc2ccccc12,99.1 µM (inactive),> 100,> 100,> 100
Cc1[nH]n(-c2ccccc2)c(=O)c1/C=N/NC(=O)c1cccc([N+](=O)[O-])c1,5.43 µM,34.2,55.1,70.7
Nc1c(C(=O)N2CCCC2)sc2nc3c(cc12)CCCCCC3,19.4 µM,92.2,> 100,> 100
CN1c2ccccc2C(=O)NC1c1ccc([N+](=O)[O-])s1 (stereo unspecified),3.09 µM,20.7,38.4,33.3
CCN(CC)C(=O)CSc1nnc2nnc3cc(OC)ccc3n12,12 µM (inactive),27.7,51.7,13.4
Cc1ccc(-c2[nH][nH]c(=O)c(=O)c2N=Nc2ccccc2)cc1,4.12 µM,51.7,> 100,86.2
N=C1C(c2nc(-c3ccc(Cl)cc3)cs2)=C(O)CN1CCCN1CCOCC1,> 100 µM (inactive),> 100,> 100,> 100
O=C1/C(=C/C=C/c2ccco2)SC(=S)N1c1ccc(O)cc1,> 100 µM (inactive),> 100,> 100,> 100
Nc1c(C(=O)c2cccs2)sc2nsc(SCCN3CCCCC3)c12,> 100 µM (inactive),> 100,> 100,> 100
CCNC(=O)CCn1nc(-c2ccc(Cl)cc2)c2ccccc2c1=O,23.6 µM,> 100,> 100,> 100
O=C(NC1CCCCC1)C1CCN(c2nccs2)CC1,40.2 µM,> 100,> 100,> 100
Cc1cccc(NC(=S)NC2CC3C=CC2C3)c1 (stereo unspecified),22.3 µM (inactive),23.8,> 100,> 100
CC(=O)c1c(OC(=O)c2cccc(Cl)c2)c2ccccc2n1C,29.5 µM (inactive),68.6,> 100,> 100

Compound,IC50,IC50 [1] [µM],IC90 [2] [µM],IC90 [3] [µM]
Cc1nn(C)c(C)c1NC(=O)CCCSc1nc(-c2ccco2)cc(C(F)(F)F)n1,> 100 µM (inactive),> 100,> 100,> 100
O=C(Nc1ccc(OC(=O)c2ccccc2)c(-c2nc3ccccc3s2)c1)c1ccccc1,> 100 µM (inactive),> 100,> 100,> 100
O=C(CNc1ccccc1Cl)Nc1cc(S(=O)(=O)N2CCOCC2)ccc1Cl,> 100 µM (inactive),> 100,> 100,> 100
CCCCCc1nnc(NC(=O)C2COc3ccccc3O2)s1 (stereo unspecified),62.5 µM (inactive),> 100,> 100,> 100
Cc1cccc(NC(=O)c2cc3ccccc3c(=O)o2)n1,37.9 µM,> 100,> 100,> 100
O=C(Nc1nnc(-c2ccco2)o1)c1ccc(S(=O)(=O)N2CCOCC2)cc1,24.5 µM,63.5,> 100,> 100
CCc1sc2nc(SCC(=O)Nc3cc(C)on3)n(-c3cccc(OC)c3)c(=O)c2c1C,> 100 µM (inactive),> 100,> 100,> 100
CCC1CCCCN1C(=O)CSc1nnc(-c2ccc(Cl)s2)o1 (stereo unspecified),> 100 µM (inactive),> 100,> 100,> 100
Cn1c(/C=N/c2nc3ccccc3[nH]2)nc2ccccc21,< 0.2 µM,3.82,> 100,4.17
Nc1n[nH]c(N)c1N=Nc1cccc(F)c1,> 100 µM (inactive),> 100,> 100,> 100
C/C(=N/NC(=O)c1ccccn1)c1ccncc1,9.52 µM,31.8,> 100,23.1
CCCCN1C(=O)c2ccc(C(=O)Nc3cccc(C)c3C)cc2C1=O,> 100 µM (inactive),> 100,> 100,> 100
O=c1oc(-c2cccs2)nc2sc3c(c12)CCCC3,22.2 µM,> 100,> 100,29.7
O=C(C1=C[C@H](c2ccc(Br)cc2)C[C@H](OCc2ccc(CO)cc2)O1)N1CCN(Cc2ccc3c(c2)OCO3)CC1,50.4 µM (inactive),> 100,> 100,> 100
Cc1cc(N2CCCCCC2)nc(-c2ccccc2O)n1,67.2 µM (inactive),91.3,> 100,> 100
CCOC(=O)NC1c2ccccc2Oc2ccccc21,37.6 µM,> 100,> 100,> 50
CCOC(=O)N1CCN(C(=O)CSc2nnc(-c3ccccc3OC)o2)CC1,6.68 µM,30,62.6,> 100
COc1cc(NC(=O)c2ccccc2Cl)ccc1NC(=O)c1ccco1,19.6 µM (inactive),32.9,> 50,> 25
O=S(=O)(Cc1ccccc1)c1cnc2ccccc2n1,14.1 µM (inactive),24.3,26.6,48.6
Cc1ccc(C)c(N2CCN(CC3CC=CCC3)CC2)c1 (stereo unspecified),25.6 µM,79.8,> 100,60.7

Compound,IC50,IC50 [1] [µM],IC90 [2] [µM],IC90 [3] [µM]
CCOC(=O)c1c(C)nc2sc(C(=O)Nc3ccccc3)c(N)c2c1-c1ccc(OC)cc1,> 100 µM (inactive),> 100,> 100,> 100
CCOC(=O)c1cnc2cc(-c3ccc(C(C)(C)C)cc3)nn2c1N,0.899 µM,12.1,> 100,5.74
CSc1ncnc2c1ccn2CC(=O)Nc1ccc(C)c(C)c1,8.44 µM,> 100,> 100,> 25
COc1cc(/C=C/C(=O)NC(C)(C)C)ccc1OCc1ccccc1,> 100 µM (inactive),> 100,> 100,> 100
O=C(CN1CCN(c2ccc(F)cc2)CC1)Nc1ccccc1C(=O)NCCc1ccccc1,35.1 µM,> 100,> 100,> 100
CCC(CC)c1nnc(NC(=O)c2ccc(N3CCCCC3)c([N+](=O)[O-])c2)s1,9.31 µM,75.9,> 100,44
Cc1cccc(/C=N\NC(=O)c2csnn2)c1,39.5 µM,> 100,> 100,> 100
COc1cccc(NC(=O)C2CC2)c1,6.09 µM,> 100,> 100,> 100
Cc1ccc(Sc2c(C(=O)Nc3ccc(F)cc3F)c(C(F)(F)F)nn2C)cc1,> 100 µM (inactive),> 100,> 100,> 100
CCn1c(O)c(/C=N/NC(=O)c2ccccc2)c(=O)n(CC)c1=S,16.2 µM,> 100,> 100,> 100
CCOC(=O)c1sc(NC(=O)CSc2n[nH]c(CC(C)C)n2)nc1C,19.3 µM (inactive),46.5,> 100,> 100
Cn1nnnc1Sc1ncnc2scc(-c3cccc(F)c3)c12,15.4 µM,> 100,> 100,> 100
N#Cc1ccc(NCC(=O)Nc2ccc(S(=O)(=O)N3CCCCC3)cc2)cc1,> 100 µM (inactive),> 100,> 100,> 100
Cc1ccc(C)c(-n2c(-c3ccco3)n[nH]c2=S)c1,14 µM,48.9,> 100,> 100
O=C1COc2ccc(C(=O)/C=C/c3ccccc3)cc2N1,9.75 µM,25.6,> 50,12.2
COC(=O)c1cccc(NC(=S)NCCC2=CCCCC2)c1,> 100 µM (inactive),> 100,> 100,> 100
O=C(c1cccc(Cl)c1)N1CCN(Cc2ccccc2F)CC1,> 100 µM (inactive),> 100,> 100,> 100
CC(=O)c1ccc(OCCCC(=O)OCC(=O)N2CCN(c3ccccc3)CC2)cc1,78.7 µM (inactive),> 100,> 100,> 100
COc1ccc(C(=O)Nc2nc3ccc(OC)cc3s2)cc1,21.2 µM,65.1,> 100,> 100
